Measurements reported in patent US20230017045A1, “PYRIDINE AND PYRIMIDINE CARBOXYLATE HERBICIDES AND METHODS OF USE THEREOF” (Dow AgroSciences LLC, priority 2017, published 2023).

These compounds were tested on test plant species (assay: Post-emergent herbicidal activity test (greenhouse, foliar spray, visual growth reduction)). Conditions: post-emergence, 336 h, ECHCG: barnyardgrass (Echinochloa crus-galli), 140 g ai/ha, 14 days after application, read-out: Visual Growth Reduction (%) 14 Days After Application, ECHCG.
Assay type: in vivo
Summary of the method: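 Greenhouse plants at first–second true leaf stage sprayed overhead at 187 L/ha with compound in acetone/water/isopropanol/DMSO/crop oil/X-77 carrier; controls received solvent blank. Injury rated visually after 14 d on a 0–100% scale versus untreated and control plants, converted to growth reduction.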

SMILES	pest or weed control at 140 g/ha
COC(=O)c1nc(-c2cc([N+](=O)[O-])c(C(F)(F)F)cc2Cl)c(F)cc1Cl [F322, Methyl 3-chloro-6-(2-chloro-5-nitro-4-(trifluoromethyl)phenyl)-5-fluoropicolinate]	0 to 29%
COC(=O)c1nc(-c2ccc(C(F)(F)F)cc2F)c(F)cc1F [F375, Methyl 3,5-difluoro-6-(2-fluoro-4-(trifluoromethyl)phenyl)picolinate]	85 to 94%

Same assay, conditions: post-emergence, 336 h, IPOHE: ivy-leaf morning glory (Ipomoea hederacea), 140 g ai/ha, 14 days after application, read-out: Visual Growth Reduction (%) 14 Days After Application, IPOHE

SMILES	pest or weed control at 140 g/ha
COC(=O)c1nc(-c2cc([N+](=O)[O-])c(C(F)(F)F)cc2Cl)c(F)cc1Cl [F322, Methyl 3-chloro-6-(2-chloro-5-nitro-4-(trifluoromethyl)phenyl)-5-fluoropicolinate]	95 to 100%
COC(=O)c1nc(-c2ccc(C(F)(F)F)cc2F)c(F)cc1F [F375, Methyl 3,5-difluoro-6-(2-fluoro-4-(trifluoromethyl)phenyl)picolinate]	95 to 100%

Same assay, conditions: post-emergence, 336 h, KCHSC: kochia (Bassia scoparia), 140 g ai/ha, 14 days after application, read-out: Visual Growth Reduction (%) 14 Days After Application, KCHSC

SMILES	pest or weed control at 140 g/ha
COC(=O)c1nc(-c2cc([N+](=O)[O-])c(C(F)(F)F)cc2Cl)c(F)cc1Cl [F322, Methyl 3-chloro-6-(2-chloro-5-nitro-4-(trifluoromethyl)phenyl)-5-fluoropicolinate]	0 to 29%
COC(=O)c1nc(-c2ccc(C(F)(F)F)cc2F)c(F)cc1F [F375, Methyl 3,5-difluoro-6-(2-fluoro-4-(trifluoromethyl)phenyl)picolinate]	60 to 74%

Same assay, conditions: post-emergence, 336 h, ORYSA: rice (Oryza sativa), 140 g ai/ha, 14 days after application, read-out: Visual Growth Reduction (%) 14 Days After Application, ORYSA

SMILES	pest or weed control at 140 g/ha
COC(=O)c1nc(-c2cc([N+](=O)[O-])c(C(F)(F)F)cc2Cl)c(F)cc1Cl [F322, Methyl 3-chloro-6-(2-chloro-5-nitro-4-(trifluoromethyl)phenyl)-5-fluoropicolinate]	0 to 29%
COC(=O)c1nc(-c2ccc(C(F)(F)F)cc2F)c(F)cc1F [F375, Methyl 3,5-difluoro-6-(2-fluoro-4-(trifluoromethyl)phenyl)picolinate]	0 to 29%

Same assay, conditions: post-emergence, 336 h, SETFA: giant foxtail (Setaria faberi), 140 g ai/ha, 14 days after application, read-out: Visual Growth Reduction (%) 14 Days After Application, SETFA

SMILES	pest or weed control at 140 g/ha
COC(=O)c1nc(-c2cc([N+](=O)[O-])c(C(F)(F)F)cc2Cl)c(F)cc1Cl [F322, Methyl 3-chloro-6-(2-chloro-5-nitro-4-(trifluoromethyl)phenyl)-5-fluoropicolinate]	0 to 29%
COC(=O)c1nc(-c2ccc(C(F)(F)F)cc2F)c(F)cc1F [F375, Methyl 3,5-difluoro-6-(2-fluoro-4-(trifluoromethyl)phenyl)picolinate]	85 to 94%

Same assay, conditions: post-emergence, 336 h, SORVU: grain sorghum (Sorghum vulgare), 140 g ai/ha, 14 days after application, read-out: Visual Growth Reduction (%) 14 Days After Application, SORVU

SMILES	pest or weed control at 140 g/ha
COC(=O)c1nc(-c2cc([N+](=O)[O-])c(C(F)(F)F)cc2Cl)c(F)cc1Cl [F322, Methyl 3-chloro-6-(2-chloro-5-nitro-4-(trifluoromethyl)phenyl)-5-fluoropicolinate]	0 to 29%
COC(=O)c1nc(-c2ccc(C(F)(F)F)cc2F)c(F)cc1F [F375, Methyl 3,5-difluoro-6-(2-fluoro-4-(trifluoromethyl)phenyl)picolinate]	85 to 94%

Same assay, conditions: post-emergence, 336 h, STEME: common chickweed (Stellaria media), 140 g ai/ha, 14 days after application, read-out: Visual Growth Reduction (%) 14 Days After Application, STEME

SMILES	pest or weed control at 140 g/ha
COC(=O)c1nc(-c2cc([N+](=O)[O-])c(C(F)(F)F)cc2Cl)c(F)cc1Cl [F322, Methyl 3-chloro-6-(2-chloro-5-nitro-4-(trifluoromethyl)phenyl)-5-fluoropicolinate]	0 to 29%
COC(=O)c1nc(-c2ccc(C(F)(F)F)cc2F)c(F)cc1F [F375, Methyl 3,5-difluoro-6-(2-fluoro-4-(trifluoromethyl)phenyl)picolinate]	0 to 29%

Same assay, conditions: post-emergence, 336 h, TRZAS: wheat, spring (Triticum aestivum), 140 g ai/ha, 14 days after application, read-out: Visual Growth Reduction (%) 14 Days After Application, TRZAS

SMILES	pest or weed control at 140 g/ha
COC(=O)c1nc(-c2cc([N+](=O)[O-])c(C(F)(F)F)cc2Cl)c(F)cc1Cl [F322, Methyl 3-chloro-6-(2-chloro-5-nitro-4-(trifluoromethyl)phenyl)-5-fluoropicolinate]	0 to 29%
COC(=O)c1nc(-c2ccc(C(F)(F)F)cc2F)c(F)cc1F [F375, Methyl 3,5-difluoro-6-(2-fluoro-4-(trifluoromethyl)phenyl)picolinate]	75 to 84%

Same assay, conditions: post-emergence, 336 h, blackgrass (Alopecurus myosuroides), 14 Days After Application, 140 g ai/ha, read-out: Visual Growth Reduction (%) ALOMY

SMILES	pest or weed control at 140 g/ha
COC(=O)c1nc(-c2cc([N+](=O)[O-])c(C(F)(F)F)cc2Cl)c(F)cc1Cl [F322, Methyl 3-chloro-6-(2-chloro-5-nitro-4-(trifluoromethyl)phenyl)-5-fluoropicolinate]	0 to 29%
COC(=O)c1nc(-c2ccc(C(F)(F)F)cc2F)c(F)cc1F [F375, Methyl 3,5-difluoro-6-(2-fluoro-4-(trifluoromethyl)phenyl)picolinate]	45 to 59%

Same assay, conditions: post-emergence, 336 h, canada thistle (Cirsium arvense), 14 Days After Application, 140 g ai/ha, read-out: Visual Growth Reduction (%) CIRAR

SMILES	pest or weed control at 140 g/ha
COC(=O)c1nc(-c2cc([N+](=O)[O-])c(C(F)(F)F)cc2Cl)c(F)cc1Cl [F322, Methyl 3-chloro-6-(2-chloro-5-nitro-4-(trifluoromethyl)phenyl)-5-fluoropicolinate]	30 to 44%
COC(=O)c1nc(-c2ccc(C(F)(F)F)cc2F)c(F)cc1F [F375, Methyl 3,5-difluoro-6-(2-fluoro-4-(trifluoromethyl)phenyl)picolinate]	85 to 94%

Same assay, conditions: post-emergence, 336 h, crabgrass (Digitaria sanguinalis), 14 Days After Application, 140 g ai/ha, read-out: Visual Growth Reduction (%) DIGSA

SMILES	pest or weed control at 140 g/ha
COC(=O)c1nc(-c2cc([N+](=O)[O-])c(C(F)(F)F)cc2Cl)c(F)cc1Cl [F322, Methyl 3-chloro-6-(2-chloro-5-nitro-4-(trifluoromethyl)phenyl)-5-fluoropicolinate]	0 to 29%
COC(=O)c1nc(-c2ccc(C(F)(F)F)cc2F)c(F)cc1F [F375, Methyl 3,5-difluoro-6-(2-fluoro-4-(trifluoromethyl)phenyl)picolinate]	85 to 94%

Same assay, conditions: post-emergence, 336 h, lambsquarters (Chenopodium album), 14 Days After Application, 140 g ai/ha, read-out: Visual Growth Reduction (%) CHEAL

SMILES	pest or weed control at 140 g/ha
COC(=O)c1nc(-c2cc([N+](=O)[O-])c(C(F)(F)F)cc2Cl)c(F)cc1Cl [F322, Methyl 3-chloro-6-(2-chloro-5-nitro-4-(trifluoromethyl)phenyl)-5-fluoropicolinate]	75 to 84%
COC(=O)c1nc(-c2ccc(C(F)(F)F)cc2F)c(F)cc1F [F375, Methyl 3,5-difluoro-6-(2-fluoro-4-(trifluoromethyl)phenyl)picolinate]	85 to 94%

Same assay, conditions: post-emergence, 336 h, redroot pigweed (Amaranthus retroflexus), 14 Days After Application, 140 g ai/ha, read-out: Visual Growth Reduction (%) AMARE

SMILES	pest or weed control at 140 g/ha
COC(=O)c1nc(-c2cc([N+](=O)[O-])c(C(F)(F)F)cc2Cl)c(F)cc1Cl [F322, Methyl 3-chloro-6-(2-chloro-5-nitro-4-(trifluoromethyl)phenyl)-5-fluoropicolinate]	60 to 74%
COC(=O)c1nc(-c2ccc(C(F)(F)F)cc2F)c(F)cc1F [F375, Methyl 3,5-difluoro-6-(2-fluoro-4-(trifluoromethyl)phenyl)picolinate]	95 to 100%

Same assay, conditions: post-emergence, 336 h, wild oat (Avena fatua), 14 Days After Application, 140 g ai/ha, read-out: Visual Growth Reduction (%) AVEFA

SMILES	pest or weed control at 140 g/ha
COC(=O)c1nc(-c2cc([N+](=O)[O-])c(C(F)(F)F)cc2Cl)c(F)cc1Cl [F322, Methyl 3-chloro-6-(2-chloro-5-nitro-4-(trifluoromethyl)phenyl)-5-fluoropicolinate]	0 to 29%
COC(=O)c1nc(-c2ccc(C(F)(F)F)cc2F)c(F)cc1F [F375, Methyl 3,5-difluoro-6-(2-fluoro-4-(trifluoromethyl)phenyl)picolinate]	60 to 74%

Same assay, conditions: post-emergence, 336 h, yellow nutsedge (Cyperus esculentus), 14 Days After Application, 140 g ai/ha, read-out: Visual Growth Reduction (%) CYPES

SMILES	pest or weed control at 140 g/ha
COC(=O)c1nc(-c2cc([N+](=O)[O-])c(C(F)(F)F)cc2Cl)c(F)cc1Cl [F322, Methyl 3-chloro-6-(2-chloro-5-nitro-4-(trifluoromethyl)phenyl)-5-fluoropicolinate]	0 to 29%
COC(=O)c1nc(-c2ccc(C(F)(F)F)cc2F)c(F)cc1F [F375, Methyl 3,5-difluoro-6-(2-fluoro-4-(trifluoromethyl)phenyl)picolinate]	0 to 29%
